In this test the test system is IL 1-induced release of neutral protease from rabbit articular chondrocytes. The test is described as follows: inhibition of IL 1-induced release of neutral protease from rabbit articular chondrocytes (azocoll assay). The format is cell-based. The conditions noted are these: Oryctolagus cuniculus, Chondrocyte, human IL 1, 24 h, relative to vehicle-treated chondrocytes, read-out: % Inhibition (I.S.D.). As to the method:
The ability of the compounds of the inventions to inhibit interleukin 1 is measured by the ability of the test compounds to inhibit the IL 1-induced release of neutral protease from rabbit articular chondrocytes.
This assay is carried out as follows:
Isolation of rabbit chondrocytes:
Male New Zealand White rabbits are anesthetized with 50 mg/kg of ketamine (i.m.) and killed by an intracardiac injection of 3 mls. of Nembutal. The knee joints of both legs are resected and the articular surfaces are exposed. Cartilate slices are obtained using a scalpel and are placed in a tissue culture dish (100 mm diameter) containing 10 mls of Hank's balanced salt solution (HBSS). The chrondrocytes within the cartilage slices are then liberated by a series of enzyme digestions. The slices are incubated for 10 min. at 37° C. in 0.05% hyaluronidase (Sigma H-3884), rinsed with HBSS and incubated with 0.2% trypsin (Sigma T-2395)for 10 min. at 37° C. The slices are rinsed again and incubated for 10 mins. at 37° C. with 1.2% collagenase (Sigma C-5138). The slices are then rinsed again with HBSS and resuspended in 10 ml of Ham's F-12 medium containing 10% fetal bovine calf serum (FCS) and 0.2% collagenase and incubated overnight at 37° C. in a 5% CO2 incubator. The next day, the medium containing the digested cartilage fragments and liberated chondrocytes is transferred to a 15 ml centrifuge tube and the cells are collected by centrifugation and washed twice and resuspended in Ham's F-12 medium. The cells are then placed into 24-well tissue culture plates (2×10^5 cells/well) and incubated at 37° C. until confluent (usually 4-6 days).
Stimulation of chondrocytes and drug treatment:
The confluent chondrocytes are rinsed twice with serum-free Ham's F-12 medium and 1 ml is added to each well. Fifty μl of purified human IL 1 (100 Units/ml; Genzyme Corporation, Boston, MA) is then added to stimulate these cells to secrete neutral protease. To measure drug effects, the cells are treated with test compound 10 min. prior to addition of IL 1. The standard screening dose is 10 μM. Twenty-four hours after IL 1 stimulation, supernatant fluids are collected and assayed for neutral protease activity.
The neutral protease activity of chrondrocyte supernatant fluids is determined by their ability to degrade an insoluble protease substrate, azocoll (Sigma). Supernatants are treated for 10 min. at room temperature with 350 μM p-aminophenylmercuric acetate to activate the latent enzyme. Three hundred μl of supernatant is then mixed with 500 μl of a 20 mg/ml suspension of azocoll and incubated at 37° C. for 18-24 hrs. with gentle rocking. The mixtures are centrifuged and the amount of substrate hydrolyzed is determined by measuring the absorbance of the supernatant at 520 nm.
Drug effects are calculated as the % change in enzyme activity (absorbance)by supernatants from drug-treated chrondrocytes relative to enzyme activity of supernatants from vehicle-treated chondrocytes as follows: [formula]

Results on five compounds are retold here after patent US4902685A, “2-amino-3-cyano-bicyclic pyridines/pyrazines as inhibitors of interleukin 1” (American Home Products Corporation, priority 1988, dated 1990).

The inhibition is the change of the read-out against control, counted positive when it falls. `N#Cc1nc2c(nc1N)CCCC2` [Example 4, 2-Amino-5,6,7,8-tetrahydro-3-quinoxalinecarbonitrile]: the inhibition at 10 µM turned out to be 41%. The same measure, in the same setting: the figure for `N#Cc1ccc(N2CCc3nc(N)c(C#N)cc3C2)cc1` [Example 1, 2-Amino-6-(4-cyanophenyl)-5,6,7,8-tetrahydro-1,6-naphthyridine-3-carbonitrile] is 18%. As to `N#Cc1cc2c(nc1N)CCCC2` [Example 5, 2-Amino-5,6,7,8-tetrahydro-3-quinolinecarbonitrile], the inhibition at 10 µM was determined as 59%. The inhibition at 1 µM (dose 1 μM) is 60%. For the compound `CS(=O)(=O)c1ccc(N2CCc3nc(N)c(C#N)cc3C2)cc1` [Example 3, 2-Amino-5,6,7,8-tetrahydro-6-[4-(methylsulfonyl)phenyl]-1,6-naphthyridine-3-carbonitrile], the inhibition at 10 µM came to 59%. On the same count and under the same terms, then `N#Cc1ccc(N2CCc3nc(N)c(C#N)nc3C2)cc1` [Example 2, 2-Amino-6-(4-cyanophenyl)-5,6,7,8-tetrahydropyrido[3,4-b]pyrazine-3-carbonitrile], with 37%.
